# Measurements: ChEMBL document CHEMBL1126942, “Synthesis and antibacterial activity of a new series of tetracyclic pyridone carboxylic acids” (J Med Chem, 1993)
# How the values were obtained:
# Type in all cases: functional
# Klebsiella pneumoniae = assay: Tested in vitro for antibacterial activity against Klebsiella pneumoniae (B54)
# [1] = test system: Staphylococcus epidermidis; assay: Tested in vitro for antibacterial activity against Staphylococcus epidermidis (IAM 1296)
# Pseudomonas aeruginosa [2] = assay: Tested in vitro for antibacterial activity against Pseudomonas aeruginosa (E-2)
# Escherichia coli [3] = assay: Tested for inhibitory activity against DNA gyrase supercoiling in Escherichia coli (KL-16)
# Escherichia coli [4] = assay: Tested in vitro for antibacterial activity against Escherichia coli (KC-14)
# Staphylococcus aureus [5] = assay: Tested in vitro for antibacterial activity against Staphylococcus aureus (FDA 209P JC-1)
# Escherichia coli [6] = assay: Tested in vitro for antibacterial activity agains Escherichia coli (NIHJ JC-2)
# Enterococcus faecalis = assay: Tested in vitro for antibacterial activity agains Enterococcus faecalis (IID 682)
# Pseudomonas aeruginosa [7] = assay: Tested in vitro for antibacterial activity against Pseudomonas aeruginosa (IFO 3445)
# Staphylococcus aureus [8] = assay: Tested in vitro for antibacterial activity against Staphylococcus aureus (IID 803)
compound,measurement,setting,value
CN1CCN(c2c(F)cc3c(=O)c(C(=O)O)c4n5c3c2OCC5CS4)CC1.Cl (stereo unspecified),MIC,Klebsiella pneumoniae,0.05 µg/mL
same,MIC,[1],0.2 µg/mL
same,MIC,Pseudomonas aeruginosa [2],1.56 µg/mL
same,IC50,Escherichia coli [3],0.33 µg/mL
same,MIC,Escherichia coli [4],0.025 µg/mL
same,MIC,Staphylococcus aureus [5],0.1 µg/mL
same,MIC,Escherichia coli [6],0.05 µg/mL
same,MIC,Enterococcus faecalis,0.78 µg/mL
same,MIC,Pseudomonas aeruginosa [7],1.56 µg/mL
same,MIC,Staphylococcus aureus [8],0.1 µg/mL
CN1CCN(c2c(F)cc3c(=O)c(C(=O)O)c4n5c3c2C(=O)CC5CS4)CC1.Cl (stereo unspecified),MIC,Klebsiella pneumoniae,0.78 µg/mL
same,MIC,[1],3.13 µg/mL
same,MIC,Pseudomonas aeruginosa [2],3.13 µg/mL
same,IC50,Escherichia coli [3],0.67 µg/mL
same,MIC,Escherichia coli [4],0.39 µg/mL
same,MIC,Staphylococcus aureus [5],0.78 µg/mL
same,MIC,Escherichia coli [6],0.78 µg/mL
same,MIC,Enterococcus faecalis,3.13 µg/mL
same,MIC,Pseudomonas aeruginosa [7],6.25 µg/mL
same,MIC,Staphylococcus aureus [8],0.78 µg/mL
CN1CCN(c2c(F)cc3c(=O)c(C(=O)O)c4n5c3c2SCC5CO4)CC1.Cl (stereo unspecified),MIC,Klebsiella pneumoniae,1.56 µg/mL
same,MIC,[1],6.25 µg/mL
same,MIC,Pseudomonas aeruginosa [2],60 µg/mL
same,IC50,Escherichia coli [3],2.61 µg/mL
same,MIC,Escherichia coli [4],1.56 µg/mL
same,MIC,Staphylococcus aureus [5],1.56 µg/mL
same,MIC,Escherichia coli [6],1.56 µg/mL
same,MIC,Enterococcus faecalis,6.25 µg/mL
same,MIC,Pseudomonas aeruginosa [7],50 µg/mL
same,MIC,Staphylococcus aureus [8],3.13 µg/mL
CN1CCN(c2c(F)cc3c(=O)c(C(=O)O)c4n5c3c2N(C)CC5CS4)CC1.Cl (stereo unspecified),MIC,Klebsiella pneumoniae,0.39 µg/mL
same,MIC,[1],0.78 µg/mL
same,MIC,Pseudomonas aeruginosa [2],6.25 µg/mL
same,IC50,Escherichia coli [3],0.53 µg/mL
same,MIC,Escherichia coli [4],0.78 µg/mL
same,MIC,Staphylococcus aureus [5],0.78 µg/mL
same,MIC,Escherichia coli [6],0.78 µg/mL
same,MIC,Enterococcus faecalis,1.56 µg/mL
same,MIC,Pseudomonas aeruginosa [7],6.25 µg/mL
same,MIC,Staphylococcus aureus [8],0.39 µg/mL
CC1COc2c(N3CCN(C)CC3)c(F)cc3c(=O)c(C(=O)O)cn1c23 (stereo unspecified) [OFLOXACIN],IC50,Escherichia coli [3],0.53 µg/mL
